From paper PMC4979471 (Cell Death Discovery, 2015)
Like-named read-outs stand apart in the source and are kept apart here.

Columns and labels:
Assay in all cases: Kinase selectivity, P33-radiolabeled assay
Assay type in all cases: biochemical
Settings in all cases: 10 μM ATP
[1] = target: T1, ASK1/MAP3K5 (Homo sapiens, UniProt Q99683)
T1 construct: purchased Reaction Biology Corp
T1 sequence (Q99683 1-1374): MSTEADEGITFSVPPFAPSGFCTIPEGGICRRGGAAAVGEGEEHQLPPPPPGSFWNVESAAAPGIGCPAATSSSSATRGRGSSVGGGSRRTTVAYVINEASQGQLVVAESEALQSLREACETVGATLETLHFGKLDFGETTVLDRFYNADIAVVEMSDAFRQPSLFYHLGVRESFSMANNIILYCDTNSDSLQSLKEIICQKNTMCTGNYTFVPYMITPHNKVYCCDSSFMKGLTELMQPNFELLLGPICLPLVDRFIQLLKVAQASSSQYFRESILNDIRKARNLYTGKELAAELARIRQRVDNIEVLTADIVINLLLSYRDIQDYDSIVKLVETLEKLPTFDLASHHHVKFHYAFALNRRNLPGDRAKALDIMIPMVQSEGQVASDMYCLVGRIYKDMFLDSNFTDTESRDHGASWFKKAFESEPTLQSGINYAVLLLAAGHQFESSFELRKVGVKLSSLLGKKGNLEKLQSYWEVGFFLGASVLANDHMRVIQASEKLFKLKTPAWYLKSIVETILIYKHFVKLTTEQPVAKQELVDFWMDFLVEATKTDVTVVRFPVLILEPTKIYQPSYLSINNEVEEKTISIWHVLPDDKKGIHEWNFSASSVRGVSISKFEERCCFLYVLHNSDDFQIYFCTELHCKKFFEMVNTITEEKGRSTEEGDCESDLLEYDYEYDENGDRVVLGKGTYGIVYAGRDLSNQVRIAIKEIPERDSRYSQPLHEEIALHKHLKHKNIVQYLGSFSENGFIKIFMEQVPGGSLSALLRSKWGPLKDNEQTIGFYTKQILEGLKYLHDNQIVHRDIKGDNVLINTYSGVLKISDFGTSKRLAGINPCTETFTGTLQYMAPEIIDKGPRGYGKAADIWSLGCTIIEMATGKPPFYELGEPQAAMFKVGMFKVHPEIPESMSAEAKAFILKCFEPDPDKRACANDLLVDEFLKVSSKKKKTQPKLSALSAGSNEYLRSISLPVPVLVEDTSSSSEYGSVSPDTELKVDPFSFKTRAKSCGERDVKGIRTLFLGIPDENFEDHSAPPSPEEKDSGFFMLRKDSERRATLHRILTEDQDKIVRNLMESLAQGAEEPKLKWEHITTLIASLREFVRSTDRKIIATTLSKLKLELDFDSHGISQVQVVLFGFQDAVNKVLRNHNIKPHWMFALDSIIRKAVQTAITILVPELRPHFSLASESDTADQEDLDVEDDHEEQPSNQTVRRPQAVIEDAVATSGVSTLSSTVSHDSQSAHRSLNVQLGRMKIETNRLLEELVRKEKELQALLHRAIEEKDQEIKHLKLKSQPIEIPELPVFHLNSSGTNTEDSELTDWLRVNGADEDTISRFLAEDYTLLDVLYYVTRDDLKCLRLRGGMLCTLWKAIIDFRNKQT
In short: (§1)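 Percent residual kinase activity versus DMSO is reported. Conditions: compound at 10 μM, ATP at 10 μM, n = 2.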

[2] = target: T2, BRSK1 (Homo sapiens, UniProt Q8TDC3)
T2 construct: purchased Reaction Biology Corp
T2 sequence (Q8TDC3 1-778): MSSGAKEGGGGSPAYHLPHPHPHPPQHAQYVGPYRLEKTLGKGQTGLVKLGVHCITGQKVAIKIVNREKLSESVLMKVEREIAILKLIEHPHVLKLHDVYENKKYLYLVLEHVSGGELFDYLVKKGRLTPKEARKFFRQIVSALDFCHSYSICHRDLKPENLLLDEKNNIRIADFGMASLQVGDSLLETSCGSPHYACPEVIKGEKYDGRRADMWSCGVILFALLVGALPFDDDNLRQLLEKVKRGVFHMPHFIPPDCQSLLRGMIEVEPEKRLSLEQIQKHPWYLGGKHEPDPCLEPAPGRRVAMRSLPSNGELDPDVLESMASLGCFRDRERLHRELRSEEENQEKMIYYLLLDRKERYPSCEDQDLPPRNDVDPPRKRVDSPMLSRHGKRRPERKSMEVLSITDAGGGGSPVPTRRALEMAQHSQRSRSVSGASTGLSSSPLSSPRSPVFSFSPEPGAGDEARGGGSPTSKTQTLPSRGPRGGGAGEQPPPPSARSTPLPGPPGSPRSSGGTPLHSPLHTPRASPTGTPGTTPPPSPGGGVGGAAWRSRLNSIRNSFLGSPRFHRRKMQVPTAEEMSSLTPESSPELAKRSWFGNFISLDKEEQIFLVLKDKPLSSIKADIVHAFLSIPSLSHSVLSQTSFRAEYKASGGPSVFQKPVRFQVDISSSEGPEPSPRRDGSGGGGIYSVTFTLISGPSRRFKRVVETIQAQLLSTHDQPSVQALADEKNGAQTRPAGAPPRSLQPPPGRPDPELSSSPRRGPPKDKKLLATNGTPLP
In short: as §1

[3] = target: T3, LOK/STK10 (Homo sapiens, UniProt O94804)
T3 construct: purchased Reaction Biology Corp
In short: as §1

[4] = target: T4, MEKK2 (Homo sapiens, UniProt Q9Y2U5)
T4 construct: purchased Reaction Biology Corp
T4 sequence (Q9Y2U5 1-619): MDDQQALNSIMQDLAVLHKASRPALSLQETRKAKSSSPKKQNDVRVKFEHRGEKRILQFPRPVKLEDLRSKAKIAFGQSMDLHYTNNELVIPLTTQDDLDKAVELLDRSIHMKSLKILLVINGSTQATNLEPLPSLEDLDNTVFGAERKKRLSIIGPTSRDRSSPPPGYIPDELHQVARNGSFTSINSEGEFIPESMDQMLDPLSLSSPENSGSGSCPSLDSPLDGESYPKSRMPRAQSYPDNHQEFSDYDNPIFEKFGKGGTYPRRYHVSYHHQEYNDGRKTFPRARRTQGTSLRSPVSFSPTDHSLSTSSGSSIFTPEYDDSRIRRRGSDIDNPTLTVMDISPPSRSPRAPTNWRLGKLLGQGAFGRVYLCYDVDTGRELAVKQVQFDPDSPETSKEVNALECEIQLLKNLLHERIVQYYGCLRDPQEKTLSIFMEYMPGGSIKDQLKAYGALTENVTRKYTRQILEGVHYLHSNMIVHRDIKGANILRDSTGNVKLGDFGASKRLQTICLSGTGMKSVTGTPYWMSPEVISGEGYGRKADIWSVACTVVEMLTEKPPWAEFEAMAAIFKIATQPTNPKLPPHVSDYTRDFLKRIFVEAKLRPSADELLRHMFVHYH
In short: as §1

[5] = read-out: % Enzyme Activity (relative to DMSO controls) AVG
[6] = read-out: % Enzyme Activity (relative to DMSO controls) Data 1
[7] = read-out: % Enzyme Activity (relative to DMSO controls) Data 2

T3 sequence (O94804 whole entry): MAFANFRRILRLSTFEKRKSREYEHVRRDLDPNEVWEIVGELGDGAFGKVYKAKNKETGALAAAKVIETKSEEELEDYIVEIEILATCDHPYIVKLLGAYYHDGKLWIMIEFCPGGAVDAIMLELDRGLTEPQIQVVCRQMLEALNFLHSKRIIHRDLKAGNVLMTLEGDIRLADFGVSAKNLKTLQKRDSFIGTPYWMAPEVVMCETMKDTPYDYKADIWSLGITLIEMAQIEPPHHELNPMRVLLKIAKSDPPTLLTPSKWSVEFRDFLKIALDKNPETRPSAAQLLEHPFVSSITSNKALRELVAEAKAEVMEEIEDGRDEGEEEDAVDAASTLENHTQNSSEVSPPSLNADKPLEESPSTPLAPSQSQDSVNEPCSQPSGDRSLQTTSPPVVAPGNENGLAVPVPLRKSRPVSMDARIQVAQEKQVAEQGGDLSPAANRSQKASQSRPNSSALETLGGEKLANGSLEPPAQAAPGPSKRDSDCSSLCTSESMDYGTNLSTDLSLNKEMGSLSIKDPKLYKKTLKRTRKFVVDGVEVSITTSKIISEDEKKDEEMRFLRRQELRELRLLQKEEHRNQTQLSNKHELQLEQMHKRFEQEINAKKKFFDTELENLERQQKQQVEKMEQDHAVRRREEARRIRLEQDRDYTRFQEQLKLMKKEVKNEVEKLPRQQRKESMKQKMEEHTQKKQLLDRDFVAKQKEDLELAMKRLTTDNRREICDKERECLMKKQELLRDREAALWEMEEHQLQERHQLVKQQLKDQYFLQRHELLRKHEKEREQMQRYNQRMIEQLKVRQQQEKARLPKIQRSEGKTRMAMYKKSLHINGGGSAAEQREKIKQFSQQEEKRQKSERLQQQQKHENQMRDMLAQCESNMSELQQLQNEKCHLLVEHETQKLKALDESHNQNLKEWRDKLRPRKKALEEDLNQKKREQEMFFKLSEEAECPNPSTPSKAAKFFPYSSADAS

## CC(C)(C)C(=O)N1N=CC[C@H]1c1ccccc1 [GSK′963]
[1]; [5]
  remaining activity at 10 µM: 98.8%
[1]; [6]
  remaining activity at 10 µM: 99.4%
[1]; [7]
  remaining activity at 10 µM: 98.1%
[2]; [5]
  remaining activity at 10 µM: 95.2%
[2]; [6]
  remaining activity at 10 µM: 96.9%
[2]; [7]
  remaining activity at 10 µM: 93.5%
[3]; [5]
  remaining activity at 10 µM: 94%
[3]; [6]
  remaining activity at 10 µM: 93.1%
[3]; [7]
  remaining activity at 10 µM: 95%
[4]; [5]
  remaining activity at 10 µM: 114%
[4]; [6]
  remaining activity at 10 µM: 114%
[4]; [7]
  remaining activity at 10 µM: 115%
